In general, IC50 refers to the concentration that inhibits the measured activity by half. The term inhibition denotes the change of the read-out against control, counted positive when it falls.

This passage reports IC50 and inhibition results from US20240182445A1 (ONO PHARMACEUTICAL CO., LTD., priority 2019, published 2024).

In the first test the target is T1, human TREK-1 (Homo sapiens, UniProt O95069).
T1 construct: expressed in transfected cells
T1 sequence (O95069 1-426): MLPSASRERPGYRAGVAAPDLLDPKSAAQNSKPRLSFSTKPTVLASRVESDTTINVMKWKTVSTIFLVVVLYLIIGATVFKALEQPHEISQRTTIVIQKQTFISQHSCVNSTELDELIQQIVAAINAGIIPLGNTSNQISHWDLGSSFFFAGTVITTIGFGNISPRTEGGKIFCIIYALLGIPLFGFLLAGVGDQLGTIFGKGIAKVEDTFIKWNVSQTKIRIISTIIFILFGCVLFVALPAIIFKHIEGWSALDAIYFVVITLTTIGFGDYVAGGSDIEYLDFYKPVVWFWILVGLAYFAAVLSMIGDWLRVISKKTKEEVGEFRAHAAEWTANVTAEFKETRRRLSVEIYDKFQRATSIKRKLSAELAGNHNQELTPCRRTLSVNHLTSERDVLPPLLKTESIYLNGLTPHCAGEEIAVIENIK
Nature of the test: TREK-1 Thallium (Tl+) flux assay, Method 1. It is filed as cell-based. As to conditions: TREK-1 Thallium (Tl+) flux assay, Method 1. Summed up:
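CHO-K1 cells stably expressing human TREK-1, loaded with Thallos dye, received compound or 0.3% DMSO vehicle for 10 min before thallium stimulus buffer. ΔRatio is fluorescence at 25 s after thallium addition over mean pre-addition fluorescence; % inhibition calculated from it.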
As to `Cc1cc(OCc2ccccc2)ccc1NC(=O)c1c(Cl)cnn1C1CC2(C1)CN(C(=O)C1CC1)C2` [Compound 406, N-(4-(benzyloxy)-2-methylphenyl)-4-chloro-1-(2-(cyclopropanecarbonyl)-2-azaspiro[3.3]heptan-6-yl)-1H-pyrazole-5-carboxamide], the IC50 turned out to be 2540 nM.
Molecule `Cc1cc(OCc2ccccc2)ccc1NC(=O)c1c(Cl)cnn1CC1CN(C(=O)C2COCCO2)CCO1` (stereo not drawn) [Compound 412, 1-((4-(1,4-dioxane-2-carbonyl)morpholin-2-yl)methyl)-N-(4-(benzyloxy)-2-methylphenyl)-4-chloro-1H-pyrazole-5-carboxamide] displayed an IC50 of 3000 nM.
On the same count and under the same terms, next, `Cc1cc(OCc2ccccc2)ccc1NC(=O)c1c(Cl)cnn1CC1CN(C(=O)C2CC2)CCO1` (stereo not drawn) [Compound 432, N-(4-(benzyloxy)-2-methylphenyl)-4-chloro-1-((4-(cyclopropanecarbonyl)morpholin-2-yl)methyl)-1H-pyrazole-5-carboxamide]: 6450 nM.

The same test, now with this note: TREK-1 Thallium (Tl+) flux assay; no *^12 (Method 2) mark on these rows.
In turn, `Cn1nc(Cl)c(C(=O)Nc2ncc(C#Cc3ccccc3)cc2F)c1-c1ccc2c(cnn2C)c1` [Compound 372, 3-chloro-N-(3-fluoro-5-(phenylethynyl)pyridin-2-yl)-1-methyl-5-(1-methyl-1H-indazol-5-yl)-1H-pyrazole-4-carboxamide] came in with an IC50 of 1080 nM.
The same measure, in the same setting: the value for `Cc1cc(C#Cc2ccccc2)cnc1NC(=O)c1c(Cl)ccn1CC1CCOCC1` [Compound 375, 3-chloro-N-(3-methyl-5-(phenylethynyl)pyridin-2-yl)-1-((tetrahydro-2H-pyran-4-yl)methyl)-1H-pyrrole-2-carboxamide] was 1150 nM; that for `CC(C)(C)OC(=O)N1CCOC(Cn2ncc(Cl)c2C(=O)Nc2ncc(C#Cc3ccccc3)cc2F)C1` (stereo not drawn) [Compound 300, tert-butyl 2-((4-chloro-5-((3-fluoro-5-(phenylethynyl)pyridin-2-yl)carbamoyl)-1H-pyrazol-1-yl)methyl)morpholine-4-carboxylate] was 540 nM; that for `Cc1cc(C#Cc2ccccc2)cnc1NC(=O)c1c(Cl)nn(C)c1-c1ccc2c(cnn2C)c1` [Compound 364, 3-chloro-1-methyl-5-(1-methyl-1H-indazol-5-yl)-N-(3-methyl-5-(phenylethynyl)pyridin-2-yl)-1H-pyrazole-4-carboxamide] was 910 nM.
Still for that read-out and setting: the value for `Cc1cc(C#Cc2ccccc2)cnc1NC(=O)c1c(Cl)cnn1C1CCCOC1` (stereo not drawn) [Compound 327, 4-chloro-N-(3-methyl-5-(phenylethynyl)pyridin-2-yl)-1-(tetrahydro-2H-pyran-3-yl)-1H-pyrazole-5-carboxamide] was 650 nM; that for `Cc1cc(C#Cc2ccccc2)cc(F)c1NC(=O)c1c(Cl)cnn1C[C@H]1COCCO1` [Compound 285, (S)-1-((1,4-dioxan-2-yl)methyl)-4-chloro-N-(2-fluoro-6-methyl-4-(phenylethynyl)phenyl)-1H-pyrazole-5-carboxamide] was 500 nM; that for `CC(C)C(=O)N1CCC(Cn2ncc(Cl)c2C(=O)Nc2ncc(C#Cc3ccccc3)cc2F)C(F)(F)C1` (stereo not drawn) [Compound 216, 4-chloro-1-((3,3-difluoro-1-isobutyrylpiperidin-4-yl)methyl)-N-(3-fluoro-5-(phenylethynyl)pyridin-2-yl)-1H-pyrazole-5-carboxamide] was 330 nM.
Same read-out and setting: next, `CC(C)(C)OC(=O)N[C@@H]1CC[C@@H](n2ncc(Cl)c2C(=O)Nc2ncc(C#Cc3ccccc3)cc2F)C1` [Compound 221, tert-butyl ((1R,3R)-3-(4-chloro-5-((3-fluoro-5-(phenylethynyl)pyridin-2-yl)carbamoyl)-1H-pyrazol-1-yl)cyclopentyl)carbamate]: 340 nM; `CC(C)(C)OC(=O)N1CCC(n2ncc(Cl)c2C(=O)Nc2ncc(C#Cc3cccs3)cc2F)CC1` [Compound 335, tert-butyl 4-(4-chloro-5-((3-fluoro-5-(thiophen-2-ylethynyl)pyridin-2-yl)carbamoyl)-1H-pyrazol-1-yl)piperidine-1-carboxylate]: 700 nM; `O=C(Nc1ncc(C#Cc2cccs2)cc1F)c1c(Cl)cnn1CCC1CCN(C(=O)C2CC2)CC1` [Compound 250, 4-chloro-1-(2-(1-(cyclopropanecarbonyl)piperidin-4-yl)ethyl)-N-(3-fluoro-5-(thiophen-2-ylethynyl)pyridin-2-yl)-1H-pyrazole-5-carboxamide]: 400 nM.
In turn, `Cc1cc(C#Cc2ccc(F)cc2)cnc1NC(=O)c1c(Cl)cnn1C1CCN(C(=O)C2COCCO2)C1` (stereo not drawn) [Compound 230, 1-(1-(1,4-dioxane-2-carbonyl)pyrrolidin-3-yl)-4-chloro-N-(5-((4-fluorophenyl)ethynyl)-3-methylpyridin-2-yl)-1H-pyrazole-5-carboxamide] gave an IC50 of 350 nM.

Still in this test, the particulars now being: TREK-1 Thallium (Tl+) flux assay; values without footnote *12 are Method 1.
Take `CC(C)C(=O)N1CC2(CC(n3ncc(Cl)c3C(=O)Nc3ncc(C#Cc4ccccc4)cc3F)C2)C1` [Compound 182, 4-chloro-N-(3-fluoro-5-(phenylethynyl)pyridin-2-yl)-1-(2-isobutyryl-2-azaspiro[3.3]heptan-6-yl)-1H-pyrazole-5-carboxamide]: the IC50 worked out at 280 nM.
Same read-out and setting: the value for `O=C(Nc1ncc(C#Cc2ccccc2)cc1F)c1c(Cl)cnn1C1CCN(C(=O)CC(F)(F)F)CC1` [Compound 55, 4-chloro-N-(3-fluoro-5-(phenylethynyl)pyridin-2-yl)-1-(1-(3,3,3-trifluoropropanoyl)piperidin-4-yl)-1H-pyrazole-5-carboxamide] was 140 nM; that for `CC(=O)N1CCC(Cn2ncc(Cl)c2C(=O)Nc2ncc(C#Cc3ccccc3)cc2C)CC1` [Compound 85, 1-((1-acetylpiperidin-4-yl)methyl)-4-chloro-N-(3-methyl-5-(phenylethynyl)pyridin-2-yl)-1H-pyrazole-5-carboxamide] was 170 nM.
The same measure, in the same setting: next, `Cc1cc(C#Cc2ccccc2)cnc1NC(=O)c1c(Cl)cnn1CCC1CCN(C(=O)C2CC2)CC1` [Compound 172, 4-chloro-1-(2-(1-(cyclopropanecarbonyl)piperidin-4-yl)ethyl)-N-(3-methyl-5-(phenylethynyl)pyridin-2-yl)-1H-pyrazole-5-carboxamide]: 270 nM.
On the same count and under the same terms, the value for `Cc1cc(C#Cc2ccc(F)cc2)cnc1NC(=O)c1c(Cl)cnn1CC1(C#N)CCN(C(=O)C(C)C)CC1` [Compound 119, 4-chloro-1-((4-cyano-1-isobutyrylpiperidin-4-yl)methyl)-N-(5-((4-fluorophenyl)ethynyl)-3-methylpyridin-2-yl)-1H-pyrazole-5-carboxamide] was 200 nM; that for `O=C(Nc1ncc(C#Cc2cccs2)cc1F)c1c(Cl)cnn1CC1CCOCC1` [Compound 69, 4-chloro-N-(3-fluoro-5-(thiophen-2-ylethynyl)pyridin-2-yl)-1-((tetrahydro-2H-pyran-4-yl)methyl)-1H-pyrazole-5-carboxamide] was 160 nM; that for `CC(C)C(=O)N1CCC(F)(Cn2ncc(Cl)c2C(=O)Nc2ncc(C#Cc3ccccc3)cc2F)CC1` [Compound 190, 4-chloro-1-((4-fluoro-1-isobutyrylpiperidin-4-yl)methyl)-N-(3-fluoro-5-(phenylethynyl)pyridin-2-yl)-1H-pyrazole-5-carboxamide] was 290 nM.
`CC(=O)N1CCC(Cn2ncc(Cl)c2C(=O)Nc2ncc(C#Cc3cccc(F)c3)cc2C)CC1` [Compound 150, 1-((1-acetylpiperidin-4-yl)methyl)-4-chloro-N-(5-((3-fluorophenyl)ethynyl)-3-methylpyridin-2-yl)-1H-pyrazole-5-carboxamide] returned an IC50 of 240 nM.
Still for that read-out and setting: next, `CC(=O)N1CC2(CC(n3ncc(Cl)c3C(=O)Nc3ncc(C#Cc4ccccc4)cc3C)C2)C1` [Compound 173, 1-(2-acetyl-2-azaspiro[3.3]heptan-6-yl)-4-chloro-N-(3-methyl-5-(phenylethynyl)pyridin-2-yl)-1H-pyrazole-5-carboxamide]: 270 nM; `Cc1cc(C#Cc2ccccc2)cc(F)c1NC(=O)c1c(Cl)cnn1[C@H]1CCOC1` [Compound 157, (S)-4-chloro-N-(2-fluoro-6-methyl-4-(phenylethynyl)phenyl)-1-(tetrahydrofuran-3-yl)-1H-pyrazole-5-carboxamide]: 250 nM.
The same measure, in the same setting: the value for `Cc1cc(C#Cc2ccccc2)cnc1NC(=O)c1c(Cl)cnn1C[C@H]1CCOC1` [Compound 147, (R)-4-chloro-N-(3-methyl-5-(phenylethynyl)pyridin-2-yl)-1-((tetrahydrofuran-3-yl)methyl)-1H-pyrazole-5-carboxamide] was 240 nM; that for `O=C(Nc1ncc(C#Cc2ccccc2)cc1F)c1c(Cl)cnn1C[C@@H]1CCOC1` [Compound 148, (S)-4-chloro-N-(3-fluoro-5-(phenylethynyl)pyridin-2-yl)-1-((tetrahydrofuran-3-yl)methyl)-1H-pyrazole-5-carboxamide] was 240 nM.

Staying with this test, now noted: read-out: Tl^+ Assay % inhibition at 30 uM (Minus value indicates activation of TREK-1); at 30 uM; CHO-K1 cells stably expressing human TREK-1; minus = activation.
For the molecule `O=C(Nc1ncc(C#Cc2cccs2)cc1F)c1nn(CCC2CCN(C(=O)C3CC3)CC2)cc1Cl` [Compound 452, 4-chloro-1-(2-(1-(cyclopropanecarbonyl)piperidin-4-yl)ethyl)-N-(3-fluoro-5-(thiophen-2-ylethynyl)pyridin-2-yl)-1H-pyrazole-3-carboxamide], the inhibition at 30 µM was -62%.
